Assay: Solubility in aqueous media / aqueous buffer solutions
Type: physicochemical

In the case of `CN1CCc2cccc3c2[C@@H]1Cc1ccc(O)c(O)c1-3` [(6aS)-6-methyl-5,6,6a,7-tetrahydro-4H-dibenzo[de,g]quinoline-10,11-diol], the “solubility in the aqueous media at various pH” value (free base, aqueous media at various pH) is reported as “low solubility”.
In the case of `CN1CCc2cccc3c2[C@@H]1Cc1ccc(O)c(O)c1-3.Cl` [(6aS)-6-methyl-5,6,6a,7-tetrahydro-4H-dibenzo[de,g]quinoline-10,11-diol hydrochloride], the “solubility in the aqueous buffer solutions” value (hydrochloride salt, aqueous buffer solutions) is reported as “low solubility”.
